These are literature values, as cited in US20250339390A1 (priority 2018, published 2025).

For the compound `O=NN(CCCl)C(=O)NCCCl` [Carmustine, 1,3-bis(2-chloroethyl)-1-nitrosourea], the solubility in water entry is given as “poorly soluble”.
